In the NIST ThermoML archive (doi:10.1021/je4002009):

Assay: mn = molality of the nth substance listed, in mol/kg
Settings: 101 kPa, Liquid; for viscosity: Capillary tube (Ostwald / Ubbelohde) method

O=C1CCC[NH+]1C1CCCCC1.O=S(=O)([O-])c1ccccc1 [1-cyclohexyl-2-oxopyrrolidin-1-ium benzenesulfonate] + O
Settings | mass density, 298.15 K [kg/m3] | mass density, 303.15 K [kg/m3] | mass density, 308.15 K [kg/m3] | viscosity, 298.15 K [mPa·s] | viscosity, 303.15 K [mPa·s] | viscosity, 308.15 K [mPa·s]
m1 = 0.0509 | 999.45 | 997.89 | 995.97 | 0.9377 | 0.8235 | 0.7406
m1 = 0.1005 | 1002.85 | 1001.35 | 999.03 | 0.9703 | 0.8645 | 0.7786
m1 = 0.1478 | 1005.4 | 1003.96 | 1001.85 | 1.01 | 0.8892 | 0.8095
m1 = 0.1987 | 1007.93 | 1006.42 | 1004.55 | 1.057 | 0.9268 | 0.8407
m1 = 0.2532 | 1010.59 | 1009.02 | 1007.24 | 1.11 | 0.9692 | 0.8758
m1 = 0.3009 | 1013.05 | 1011.32 | 1009.49 | 1.153 | 1.009 | 0.9088
m1 = 0.3497 | 1015.5 | 1013.84 | 1011.74 | 1.199 | 1.051 | 0.9404
m1 = 0.4013 | 1018.26 | 1016.55 | 1014.3 | 1.247 | 1.097 | 0.9772
m1 = 0.4514 | 1021.07 | 1019.24 | 1016.92 | 1.292 | 1.141 | 1.013
m1 = 0.5008 | 1023.74 | 1022.03 | 1019.52 | 1.337 | 1.181 | 1.046
m1 = 0.5492 | 1026.44 | 1024.55 | 1022.06 | 1.383 | 1.224 | 1.083
m1 = 0.6024 | 1029.39 | 1027.42 | 1024.91 | 1.432 | 1.268 | 1.123
m1 = 0.6506 | 1031.86 | 1029.91 | 1027.47 | 1.479 | 1.309 | 1.163
m1 = 0.7603 | 1037.45 | 1035.1 | 1032.83 | 1.588 | 1.405 | 1.249
m1 = 0.7986 | 1039.18 | 1036.89 | 1034.62 | 1.631 | 1.442 | 1.283
m1 = 0.9023 | 1043.64 | 1041.09 | 1038.92 | 1.736 | 1.535 | 1.373
m1 = 0.9974 | 1047.35 | 1044.52 | 1042.51 | 1.838 | 1.623 | 1.448
m1 = 1.199 | 1054.63 | 1052.23 | 1049.68 | 2.08 | 1.81 | 1.617

CN1CCCC1=O.O=S(=O)(O)c1ccccc1 [1-methyl-2-pyrrolidinone benzenesulfonate] + O
Settings | mass density, 298.15 K [kg/m3] | mass density, 303.15 K [kg/m3] | mass density, 308.15 K [kg/m3] | viscosity, 298.15 K [mPa·s] | viscosity, 303.15 K [mPa·s] | viscosity, 308.15 K [mPa·s]
m1 = 0.0521 | 1000.25 | 998.54 | 996.69 | 0.9266 | 0.8213 | 0.7506
m1 = 0.1042 | 1003.16 | 1001.68 | 999.93 | 0.9506 | 0.845 | 0.7706
m1 = 0.1369 | 1004.9 | 1003.46 | 1001.57 | 0.9685 | 0.8602 | 0.7809
m1 = 0.2057 | 1008.79 | 1007.07 | 1004.83 | 1.003 | 0.8912 | 0.8063
m1 = 0.2512 | 1011.09 | 1009.23 | 1006.69 | 1.028 | 0.9109 | 0.8208
m1 = 0.2984 | 1013.59 | 1011.55 | 1008.84 | 1.055 | 0.9313 | 0.8393
m1 = 0.3556 | 1016.55 | 1014.41 | 1011.59 | 1.083 | 0.9567 | 0.8611
m1 = 0.4028 | 1018.9 | 1016.7 | 1013.74 | 1.107 | 0.9774 | 0.8786
m1 = 0.4537 | 1021.44 | 1019.25 | 1016.36 | 1.133 | 1.002 | 0.8972
m1 = 0.5093 | 1024.16 | 1022.14 | 1019.21 | 1.16 | 1.025 | 0.9174
m1 = 0.6018 | 1028.61 | 1026.63 | 1023.82 | 1.204 | 1.065 | 0.9514
m1 = 0.6492 | 1030.83 | 1028.91 | 1026.28 | 1.226 | 1.085 | 0.9692
m1 = 0.7511 | 1035.5 | 1033.54 | 1030.78 | 1.277 | 1.13 | 1.009
m1 = 0.8129 | 1038.24 | 1036.23 | 1033.29 | 1.309 | 1.158 | 1.034
m1 = 0.871 | 1040.72 | 1038.49 | 1035.54 | 1.341 | 1.185 | 1.059
m1 = 0.9001 | 1042.02 | 1039.67 | 1036.66 | 1.358 | 1.198 | 1.072
m1 = 1.019 | 1047.01 | 1044.27 | 1041.12 | 1.423 | 1.257 | 1.127
m1 = 1.199 | 1054.33 | 1052.06 | 1049.61 | 1.54 | 1.358 | 1.219

CN1CCCC1=O.Cc1ccc(S(=O)(=O)O)cc1 [1-methyl-2-pyrrolidinone p-toluenesulfonate] + O
Settings | mass density, 298.15 K [kg/m3] | mass density, 303.15 K [kg/m3] | mass density, 308.15 K [kg/m3] | viscosity, 298.15 K [mPa·s] | viscosity, 303.15 K [mPa·s] | viscosity, 308.15 K [mPa·s]
m1 = 0.0499 | 999.98 | 998.53 | 996.06 | 0.9405 | 0.8355 | 0.7579
m1 = 0.1012 | 1002.71 | 1000.47 | 998.66 | 0.9707 | 0.8613 | 0.7776
m1 = 0.1588 | 1005.8 | 1004.01 | 1002.3 | 0.9996 | 0.8905 | 0.8002
m1 = 0.1983 | 1007.95 | 1006.37 | 1004.65 | 1.021 | 0.9097 | 0.8164
m1 = 0.2691 | 1011.73 | 1010.16 | 1008.34 | 1.059 | 0.9445 | 0.8406
m1 = 0.3004 | 1013.31 | 1011.73 | 1009.85 | 1.077 | 0.9602 | 0.8511
m1 = 0.3421 | 1015.42 | 1013.71 | 1011.83 | 1.1 | 0.9826 | 0.8691
m1 = 0.398 | 1018.29 | 1016.41 | 1014.42 | 1.13 | 1.007 | 0.892
m1 = 0.4495 | 1020.8 | 1018.89 | 1016.77 | 1.155 | 1.03 | 0.9131
m1 = 0.5139 | 1023.87 | 1021.88 | 1019.63 | 1.191 | 1.058 | 0.9369
m1 = 0.6053 | 1028.17 | 1026.17 | 1023.9 | 1.241 | 1.099 | 0.9752
m1 = 0.6615 | 1030.76 | 1028.65 | 1026.41 | 1.272 | 1.127 | 0.9976
m1 = 0.7504 | 1034.66 | 1032.58 | 1030.21 | 1.319 | 1.169 | 1.036
m1 = 0.7605 | 1035.06 | 1033 | 1030.65 | 1.324 | 1.173 | 1.04
m1 = 0.8335 | 1038.2 | 1036.01 | 1033.59 | 1.366 | 1.207 | 1.072
m1 = 0.9023 | 1041.05 | 1038.67 | 1036.34 | 1.411 | 1.244 | 1.106
m1 = 1.007 | 1045.23 | 1042.61 | 1040.36 | 1.477 | 1.299 | 1.161
m1 = 1.201 | 1052.61 | 1050.61 | 1048.17 | 1.61 | 1.409 | 1.266

Cc1ccc(S(=O)(=O)O)cc1.O=C1CCCN1C1CCCCC1 [1-cyclohexyl-2-pyrrolidinone 4-methylbenzenesulfonate] + O
Settings | mass density, 298.15 K [kg/m3] | mass density, 303.15 K [kg/m3] | mass density, 308.15 K [kg/m3] | viscosity, 298.15 K [mPa·s] | viscosity, 303.15 K [mPa·s] | viscosity, 308.15 K [mPa·s]
m1 = 0.0502 | 1000.25 | 998.76 | 997.02 | 0.9563 | 0.8427 | 0.7524
m1 = 0.1025 | 1003.22 | 1001.6 | 999.85 | 0.9991 | 0.8853 | 0.7957
m1 = 0.1513 | 1005.86 | 1004.3 | 1002.49 | 1.035 | 0.9171 | 0.8304
m1 = 0.1991 | 1008.58 | 1006.95 | 1005.1 | 1.082 | 0.9514 | 0.8636
m1 = 0.2492 | 1011.41 | 1009.76 | 1007.84 | 1.134 | 0.9897 | 0.8957
m1 = 0.3015 | 1014.32 | 1012.57 | 1010.6 | 1.186 | 1.036 | 0.9333
m1 = 0.3524 | 1017.03 | 1015.23 | 1013.12 | 1.24 | 1.08 | 0.9639
m1 = 0.4007 | 1019.46 | 1017.48 | 1015.41 | 1.289 | 1.123 | 0.9982
m1 = 0.4491 | 1021.74 | 1019.79 | 1017.58 | 1.337 | 1.165 | 1.029
m1 = 0.4976 | 1023.93 | 1021.92 | 1019.7 | 1.383 | 1.207 | 1.066
m1 = 0.5503 | 1026.3 | 1024.26 | 1021.89 | 1.435 | 1.254 | 1.104
m1 = 0.6019 | 1028.47 | 1026.37 | 1023.96 | 1.485 | 1.3 | 1.145
m1 = 0.6492 | 1030.43 | 1028.29 | 1025.85 | 1.537 | 1.344 | 1.184
m1 = 0.7521 | 1034.7 | 1032.51 | 1030.01 | 1.648 | 1.44 | 1.272
m1 = 0.8074 | 1037 | 1034.74 | 1032.32 | 1.715 | 1.497 | 1.323
m1 = 0.9012 | 1040.82 | 1038.55 | 1036.16 | 1.829 | 1.596 | 1.412
m1 = 1.002 | 1044.83 | 1042.52 | 1040.19 | 1.966 | 1.7 | 1.506
m1 = 1.199 | 1051.36 | 1048.95 | 1046.4 | 2.233 | 1.907 | 1.688
